Data set [1] relates to Streptococcus suis CVCC 3928. The data set is described as follows: MIC by trace broth dilution method. In kind it is cell-based. The conditions noted are these: 16-18 h. The method, then:
(§1) The minimum inhibition concentration (MIC) of ID13 against pathogens was measured using a trace broth dilution method. The freeze-dried powder of antimicrobial peptide ID13 obtained in Example 6 was used to prepare a solution of antimicrobial peptide ID13 with a concentration of 1280 μg/mL and a solution of vancomycin, respectively with sterile normal saline, and diluted with a two-fold ratio to a final concentration of 1.25 μg/mL. The antimicrobial peptide ID13 solutions and vancomycin solutions of different concentrations were added to a sterile 96-well cell culture plate, with 10 μL per well, three parallels for each sample, and the same amount (10 μL) of sterile saline was used as a negative control, to prepare MIC plates. Strains were cultured in MH liquid medium with shaking at 37° C. until its OD600 nm=0.4 and diluted to 1×10^5 CFU/ml. 90 μL of cell suspension was added into each well of the prepared sample well of the MIC plate and incubated at 37° C. for 16-18 h.

For data set [2], the system named is Staphylococcus aureus ATCC 43300. The data set is described as follows: MIC by trace broth dilution method. In kind it is cell-based. The conditions noted are these: 16-18 h. The method, then:
as §1

Data set [3] concerns Staphylococcus aureus CVCC 546. The data set is described as follows: MIC by trace broth dilution method. The class given is cell-based. As to conditions: 16-18 h. The method, then:
as §1
On the technique in general: Dilution methods test growth across graded concentrations, often in twofold steps.

The subject of data set [4] is MRSA ATCC 43300. The conditions noted are these: cited from earlier work.
Data set [5] relates to Staphylococcus Epidermidis ATCC 12228. The data set can be described thus: MIC by trace broth dilution method. The class given is cell-based. The protocol: as §1
Data set [6] relates to Streptococcus pneumoniae CVCC 2350. The data set is described as follows: MIC by trace broth dilution method. In kind it is cell-based. The protocol: as §1
Data set [7] concerns Gram-positive bacteria. The data set can be described thus: Antimicrobial activity (MIC) summary over tested strains. The conditions noted are these: range over the tested Gram-positive strains. The class given is cell-based. The protocol: as §1
Data set [8] deals with mice red blood cells. The data set can be described thus: Hemolysis assay. The class given is cell-based, ICR mice. The conditions noted are these: concentration of 1-256 μg/mL; 37° C., 1 h. The protocol: The freeze-dried powder of antimicrobial peptide ID13 obtained in Example 6 was used for the test. The antimicrobial peptide ID13 was dissolved in sterile physiological saline to prepare a stock solution of a concentration of 512 μg/mL, and diluted with a 2-fold ratio to a final concentration of 2 μg/mL. The blood from the eyeballs of 6-week-old SPF female ICR mice was taken and collected with a heparin sodium anticoagulation tube. The collected blood was centrifuged at 4° C., 1500 rpm for 10 min. The red blood cells were washed three times with 10 mM PBS (pH 7.3) until the supernatant was colorless and transparent, and an 8% red blood cell suspension was prepared. 100 μL of the red blood cell suspension and antimicrobial peptide ID13 solution were added to 96-well plate, incubated at 37° C. for 1 h, and centrifuged at 1500 rpm for 5 min. The resulted supernatant was transferred to ELISA plate to detect the UV absorbance at 540 nm. Values of 0% and 100% hemolysis control tests were set up with physiological saline and 0.1% TRITON X-100 detergent, respectively. The formula for calculating the degree of hemolysis was as follows (Jung, Park, etc., 2007): Hemolysis (%)=[(Abs540 nm antimicrobial peptide ID13—Abs540 nm physiological saline)/(Abs540 nm 0.1% TRITON X-100 detergent—Abs540 nm physiological saline)]×100%.

For data set [9], the system named is RAW264.7 cells. The data set is described as follows: Cytotoxicity assay (MTT). In kind it is cell-based. As to conditions: 256 μg/mL, 24 hours incubation. The protocol:
The RAW264.7 cells were cultured in DMEM complete medium with 37° C., 5% CO2 and saturated humidity conditions. The cells were pipetted and re-suspended in DMEM complete medium. Then, the cells were seeded in a 96-well plate at a density of 2.5×10^5 cells/mL, 100 μL per well, and 3 replicates were set. After 24 h, the medium was removed, and 100 μL of 1, 2, 4, 8, 16, 32, 64, 128, and 256 μg/mL ID13 were added to each well according to a concentration gradient. Control wells were added with the same amount of PBS solution. After 24 hours incubation, the medium was removed; the wells were washed twice with PBS, and 100 μL of MTT at a concentration of 5 mg/mL was added to each well (which were operated in dark). The 96-well plate was moved to an incubator and continued to be incubated for 4 h. After discarding the MTT solution, 150 μL DMSO was added into each well, and then the plate was cultured with shaking for 10 minutes. When crystals at the well bottom were completely dissolved, the absorbance values were measured at a wavelength of 570 nm. The cell survival rate was calculated according to the following formula: survival rate (%)=OD value of the treatment group/OD value of the control group×100% (Jiao et al., 2015).

One may read the MIC as the least concentration at which growth counts as inhibited.

“And” between values parts separate entries of the source, which are not always exact repeats. Equal entries are not always repeated. Where two headings read alike, the source gives them in different places. Bridge positions count the residues as written; N and C are the ends. Peptide text beside a SMILES is read from it.

For the compound `CC[C@H](C)[C@@H]1NC(=O)[C@@H]2CSSC[C@@H](C(=O)N[C@@H](CCCNC(=N)N)C(=O)N[C@@H](CCCCN)C(=O)O)NC(=O)[C@H](CC(N)=O)NC(=O)[C@@H]3CSSC[C@H](NC(=O)[C@H](C)NC(=O)[C@H](C)NC(=O)[C@H](Cc4c[nH]cn4)NC(=O)CNC(=O)[C@H](C(C)C)NC(=O)[C@H](CCCCN)NC(=O)[C@H](Cc4ccccc4)NC(=O)[C@@H]4CCCN4C(=O)[C@H](CO)NC(=O)[C@H](CC(C)C)NC(=O)[C@H](CC(C)C)NC(=O)[C@H](CC(=O)O)NC(=O)[C@@H](NC(=O)[C@@H](NC(=O)[C@H](C)N)[C@@H](C)O)CSSC[C@H](NC(=O)[C@H](Cc4c[nH]c5ccccc45)NC(=O)CNC(=O)CNC(=O)[C@H](CCCNC(=N)N)NC(=O)[C@H](CCCCN)NC(=O)CNC(=O)[C@H](CCCNC(=N)N)NC(=O)[C@H](C)NC1=O)C(=O)N[C@@H](CC(=O)O)C(=O)N[C@@H](CCCCN)C(=O)N[C@@H](CCCNC(=N)N)C(=O)N[C@@H](C)C(=O)N[C@@H](C(C)C)C(=O)N3)C(=O)N[C@@H](C)C(=O)N[C@@H](C)C(=O)N[C@@H](Cc1c[nH]cn1)C(=O)N2` [DLP4] (H-ATCDLLSPFKVGHAACAAHCIARGKRGGWCDKRAVCNCRK-OH; disulfide 3-30, 16-36, 20-38; N-terminus and C-terminus assumed), the MIC in data set [1] (37° C.), in data set [2] (37° C.) and in data set [3] (37° C.) was 16 µg/mL each time. Further, the “drug tolerance such as increased MIC” value in data set [4] (MRSA ATCC 43300 continuously passaged for 30 days under the effective dose) is given as “no drug tolerance”.

For the compound `CC[C@H](C)[C@@H]1NC(=O)[C@@H]2CSSC[C@@H](C(=O)N[C@@H](CCCNC(=N)N)C(=O)N[C@@H](CCCCN)C(=O)O)NC(=O)[C@H](CC(N)=O)NC(=O)[C@@H]3CSSC[C@H](NC(=O)[C@H](C)NC(=O)[C@H](C)NC(=O)[C@H](Cc4c[nH]cn4)NC(=O)CNC(=O)[C@H](C(C)C)NC(=O)[C@H](CCCCN)NC(=O)[C@H](Cc4ccccc4)NC(=O)[C@@H]4CCCN4C(=O)[C@H](CO)NC(=O)[C@H](CC(C)C)NC(=O)[C@H](CC(C)C)NC(=O)[C@H](CC(=O)O)NC(=O)[C@@H](NC(=O)[C@@H](NC(=O)[C@H](C)N)[C@@H](C)O)CSSC[C@H](NC(=O)[C@H](Cc4c[nH]c5ccccc45)NC(=O)CNC(=O)CNC(=O)[C@H](CCCNC(=N)N)NC(=O)[C@H](CCCCN)NC(=O)CNC(=O)[C@H](CCCNC(=N)N)NC(=O)[C@H](C)NC1=O)C(=O)N[C@@H](CC(=O)O)C(=O)NCC(=O)N[C@@H](CCCNC(=N)N)C(=O)N[C@@H](C)C(=O)N[C@@H](C(C)C)C(=O)N3)C(=O)N[C@@H](C)C(=O)N[C@@H](C)C(=O)N[C@@H](Cc1c[nH]cn1)C(=O)N2` [ID13] (H-ATCDLLSPFKVGHAACAAHCIARGKRGGWCDGRAVCNCRK-OH; disulfide 3-30, 16-36, 20-38 (inferred); N-terminus and C-terminus assumed), the MIC was 1.91 μM and 8 μg/mL in [5] (Staphylococcus Epidermidis ATCC 12228, 37° C., 16-18 h); 4 µg/mL in [1] (37° C.); 0.95 µM in data set [1] (37° C., read-out: MIC); 4 µg/mL in data set [2] (37° C.); 0.95 µM in [2] (37° C., read-out: MIC); 4 µg/mL in data set [3] (37° C.). Moreover, the minimal inhibitory concentration (MIC) in data set [3] (37° C., read-out: MIC) is 0.95 µM; in [6] (Streptococcus pneumoniae CVCC 2350, 37° C., 16-18 h), 0.95 μM and 4 μg/mL. Further, the “antimicrobial activity against Gram-positive bacteria (MIC range)” value in data set [7] was 0.95 to 1.91 µM. In [8], the “hemolysis to mice red blood cells” value was “little hemolysis”. In data set [9], the cell survival rate is on record as 72%.

For `CN[C@H](CC(C)C)C(=O)N[C@H]1C(=O)N[C@@H](CC(N)=O)C(=O)N[C@H]2C(=O)N[C@H]3C(=O)N[C@H](C(=O)N[C@H](C(=O)O)c4cc(O)cc(O)c4-c4cc3ccc4O)[C@H](O)c3ccc(c(Cl)c3)Oc3cc2cc(c3O[C@@H]2O[C@H](CO)[C@@H](O)[C@H](O)[C@H]2O[C@H]2C[C@](C)(N)[C@H](O)[C@H](C)O2)Oc2ccc(cc2Cl)[C@H]1O` [Vancomycin], the MIC in data set [5] (Staphylococcus epidermidis, ATCC12228) was 0.67 µM and 1 µg/mL; in data set [1] (CVCC3928, 37° C., read-out: MIC), 0.17 µM and 0.25 µg/mL; in data set [2] (ATCC43300, 37° C., read-out: MIC), 0.67 µM and 1 µg/mL; in data set [3] (CVCC546, 37° C., read-out: MIC), 0.67 µM and 1 µg/mL; in data set [6] (Streptococcus pneumoniae, CVCC2350), 0.34 µM and 0.5 µg/mL.

On to `CO/N=C(\C(=O)N[C@@H]1C(=O)N2C(C(=O)O)=C(CSc3nc(=O)c(=O)[nH]n3C)CS[C@H]12)c1csc(N)n1` [ceftriaxone], for which the “increase of MIC value” in data set [4] (MRSA ATCC 43300 continuously passaged for 30 days) is reported as 256 times.
